This note sets out measurements from patent US8304447B2, “2-acylaminopropoanol-type glucosylceramide synthase inhibitors” (Genzyme Corporation, priority 2007, dated 2012).

A value given as a limit tells only on which side of the number the result lay.

The subject of one experiment is GM3. The experiment can be described thus: GM3 Elisa assay. Format: cell-based. The conditions noted are these: 48 h, Table 1; B16-FO cells, 2 days incubation; read-out: IC50_uM_Mean. In outline:
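Murine B16-FO melanoma cells attached 6 h on collagen, then exposed to compounds for 2 days at 37 °C. After formaldehyde fixation, cell-surface GM3 (NeuAc) was detected by anti-GM3 IgM and peroxidase anti-mouse IgM with Quantablu fluorescence (Ex 325/Em 420).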
In the case of `O=C(CCOc1cc(Cl)ccc1Cl)N[C@H](CN1CCCC1)[C@H](O)c1ccc2c(c1)OCCO2` [Compound 55, 3-(2,5-dichlorophenoxy)-N-((1R,2R)-1-(2,3-dihydrobenzo[β][1,4]dioxin-6-yl)-1-hydroxy-3-(pyrrolidin-1-yl)propan-2-yl)propanamide], the IC50 was at most 0.1 µM.
On to `O=C(Cc1cccc(Oc2ccccc2)c1)N[C@H](CN1CCCC1)[C@H](O)c1ccc2c(c1)OCCO2` [Compound 86, N-((1R,2R)-1-(2,3-dihydrobenzo[b][1,4]dioxin-6-yl)-1-hydroxy-3-(pyrrolidin-1-yl)propan-2-yl)-2-(3-phenoxyphenyl)acetamide], for which the IC50 was at most 0.1 µM.
The same measure, in the same setting: to `O=C(CCOc1ccc(Cl)cc1)N[C@H](CN1CCCC1)[C@H](O)c1ccc2c(c1)OCCO2` [Compound 57, 3-(4-chlorophenoxy)-N-((1R,2R)-1-(2,3-dihydrobenzo[β][1,4]dioxin-6-yl)-1-hydroxy-3-(pyrrolidin-1-yl)propan-2-yl)propanamide] belongs at most 0.1 µM; to `O=C(N[C@H](CN1CCCC1)[C@H](O)c1ccc2c(c1)OCCO2)[C@@H](O)Cc1ccccc1` [Compound 25, (S)—N-((1R,2R)-1-(2,3-dihydrobenzo[β][1,4]dioxin-6-yl)-1-hydroxy-3-(pyrrolidin-1-yl)propan-2-yl)-2-hydroxy-3-phenylpropanamide], 0.1 to 1 µM.
The same measure, in the same setting: to `O=C(Nc1cccc(C(F)(F)F)c1)N[C@H](CN1CCCC1)[C@H](O)c1ccc2c(c1)OCCO2` [Compound 68, 1-((1R,2R)-1-(2,3-dihydrobenzo[β][1,4]dioxin-6-yl)-1-hydroxy-3-(pyrrolidin-1-yl)propan-2-yl)-3-(3-(trifluoromethyl)phenyl)urea] belongs 0.1 to 1 µM.
Same read-out and setting: to `O=C(CCOc1ccccc1F)N[C@H](CN1CCCC1)[C@H](O)c1ccc2c(c1)OCCO2` [Compound 60, N-((1R,2R)-1-(2,3-dihydrobenzo[β][1,4]dioxin-6-yl)-1-hydroxy-3-(pyrrolidin-1-yl)propan-2-yl)-3-(2-fluorophenoxy)propanamide] belongs at most 0.1 µM.
As to `O=C(Cc1ccc(OC(F)(F)F)cc1)N[C@H](CN1CCCC1)[C@H](O)c1ccc2c(c1)OCCO2` [Compound 103, N-((1R,2R)-1-(2,3-dihydrobenzo[β][1,4]dioxin-6-yl)-1-hydroxy-3-(pyrrolidin-1-yl)propan-2-yl)-2-(4-(trifluoromethoxy)phenyl)acetamide], the IC50 was at most 0.1 µM.
Still for that read-out and setting: the figure for `O=C(CCOc1ccc(F)cc1)N[C@H](CN1CCCC1)[C@H](O)c1ccc2c(c1)OCCO2` [Compound 58, N-((1R,2R)-1-(2,3-dihydrobenzo[β][1,4]dioxin-6-yl)-1-hydroxy-3-(pyrrolidin-1-yl)propan-2-yl)-3-(4-fluorophenoxy)propanamide] is 0.1 to 1 µM.

The same experiment, now with this note: 48 h, Table 2; B16-FO cells, 2 days incubation; read-out: IC50_uM_Mean.
On to `CCCCCCCC(=O)N[C@H](CN1CCCC1CN1CCCC1)[C@H](O)c1ccc2c(c1)OCCO2` (stereo partly shown) [Compound 316], for which the IC50 was 3 to 10 µM.
Same read-out and setting: to `O=C(NCCc1cccs1)N[C@H](CN1CCCC1)[C@H](O)c1ccc2c(c1)OCCO2` [Compound 287, 1-((1R,2R)-1-(2,3-dihydrobenzo[β][1,4]dioxin-6-yl)-1-hydroxy-3-(pyrrolidin-1-yl)propan-2-yl)-3-(2-(thiophen-2-yl)ethyl)urea] belongs 1 to 3 µM; to `COc1ccc(C(=O)CCCCCC(=O)N[C@H](CN2CCCC2)[C@H](O)c2ccc(OC)cc2)cc1` [Compound 285, 7-(4-Methoxy-phenyl)-7-oxo-heptanoic acid [2-hydroxy-2-(4-methoxy-phenyl)-1-pyrrolidin-1-ylmethyl-ethyl]-amide], at most 0.1 µM; to `CCCCCCCC(=O)N[C@H](CN1CCC(CN2CCCC2)C1)[C@H](O)c1ccc2c(c1)OCCO2` (stereo partly shown) [Compound 313], at most 0.1 µM.

The same experiment, now with this note: Table 1; B16-FO cells, 2 days incubation; read-out: IC50_uM_Mean.
Regarding `O=C(CCC(=O)c1ccc(C(F)(F)F)cc1)N[C@H](CN1CCCC1)[C@H](O)c1ccc2c(c1)OCCO2` [Compound 176, N-((1R,2R)-1-(2,3-dihydrobenzo[β][1,4]dioxin-6-yl)-1-hydroxy-3-(pyrrolidin-1-yl)propan-2-yl)-4-oxo-4-(4-(trifluoromethyl)phenyl)butanamide (2S,3S)-2,3-dihydroxysuccinate], the IC50 is at most 0.1 µM.

The experiment is the same for the next values; noted with them: Table 3 (IC 50 Values); B16-FO cells; read-out: IC50_uM_Mean.
In the case of `COCCOc1ccc([C@@H](O)[C@@H](CN2CCCC2)NC(=O)CCCCC(=O)c2ccc(OC)cc2)cc1` [Compound 417], the IC50 was at most 0.1 µM.
On to `COc1ccc(C(=O)CCCCC(=O)N[C@H](CN2CCCC2)[C@H](O)c2ccc(-c3ccccc3)cc2)cc1` [Compound 694], for which the IC50 was in the range of 0.1 to 1 µM.
For `CCCCCCOc1ccc([C@@H](O)[C@@H](CN2CCCC2)NC(=O)CCOc2ccc(OC)cc2)cc1` [Compound 413], the IC50 was at most 0.1 µM.
Still for that read-out and setting: to `CCCCOc1ccc([C@@H](O)[C@@H](CN2CC[C@H](O)C2)NC(=O)CCCCCOCCF)cc1` [Compound 661] belongs 1 to 3 µM; to `COc1ccc(C(=O)CCCCCC(=O)N[C@H](CNC2CCC2)[C@H](O)c2ccc3c(c2)OCCO3)cc1` [Compound 460], 1 to 3 µM; to `COc1ccc(C(=O)CCCCC(=O)N[C@H](CN2CCCC2)[C@H](O)c2ccc(C)c(F)c2)cc1` [Compound 351], 0.1 to 1 µM.
As for `COc1ccc(OCCC(=O)N[C@H](CN2C[C@@H]3CC[C@H]2C3)[C@H](O)c2ccc3c(c2)OCCO3)cc1` [Compound 544], the IC50 lay within 0.1 to 1 µM.
Same read-out and setting: the figure for `COc1ccc(C(=O)CCC(=O)CCC(=O)N[C@H](CN2CCCC2)[C@H](O)c2ccc3c(c2)OCCO3)cc1` [Compound 378] is at most 0.1 µM; for `COc1cc([C@@H](O)[C@@H](CN2CCCC2)NC(=O)CCCCCC(C)=O)cc(OC)c1OC` [Compound 671] it is 3 to 10 µM.
The same measure, in the same setting: to `O=C(CCCCCC(F)(F)C(F)(F)F)N[C@H](CN1CCCC1)[C@H](O)c1ccc2c(c1)OCCO2` [Compound 621] belongs 1 to 3 µM.
On to `COc1ccc(C(=O)CCCCC(=O)N[C@H](CN2CCCC2)[C@H](O)c2ccc(Cl)cc2)cc1` [Compound 384], for which the IC50 was in the range of 0.1 to 1 µM.
The same measure, in the same setting: the figure for `COc1ccc(C(=O)CCCCC(=O)N[C@H](CN2CCCC2)[C@H](O)c2ccc(OC)c(F)c2)cc1` [Compound 344] is at most 0.1 µM.
Still for that read-out and setting: the figure for `COc1ccc(C(=O)CCCCCC(=O)N[C@H](CN2CCCC2)[C@H](O)c2ccc3c(c2)OC(F)(F)O3)cc1` [Compound 409] is 0.1 to 1 µM.
Still for that read-out and setting: to `CCCCCCCC(=O)N[C@@H](CN1CCCC1)[C@H](O)c1ccc2c(c1)OCCO2` [Compound 672] belongs 3 to 10 µM.
Turning to `COc1ccc(OCCCC(=O)N[C@H](CN2CC[C@H](O)C2)[C@H](O)c2ccc(OCCCCF)cc2)cc1` [Compound 501], the IC50 is at most 0.1 µM.
On the same count and under the same terms, the figure for `COc1ccc(OCCC(=O)N(Cc2ccc(-c3noc(C)n3)cc2)[C@H](CN2CCCC2)[C@H](O)c2ccc(O)cc2)cc1` [Compound 720] is 3 to 10 µM; for `COc1ccc(C(=O)CCCCCC(=O)N[C@H](CN2CCCC2)[C@H](O)c2ccc(OC(F)(F)F)cc2)cc1` [Compound 666] it is 0.1 to 1 µM; for `CCCCCCCC(=O)N[C@H](CN1CC(F)(F)C1)[C@H](O)c1ccc2c(c1)OCCO2` [Compound 623] it is 3 to 10 µM.
Same read-out and setting: to `CCCCCCCC(=O)N[C@@H](CN1CCCC1)[C@@H](O)c1ccc2c(c1)OCCO2` [Compound 677] belongs 3 to 10 µM; to `CCCCCCCC(=O)N[C@H](CN1CCC(C)CC1)[C@H](O)c1ccc2c(c1)OCCO2` [Compound 611], 3 to 10 µM; to `CCCCCCCC(=O)N[C@H](CN1CCCC1)[C@H](O)c1ccc(Cl)cc1` [Compound 385], 1 to 3 µM.
Consider `COCCCCCCCC(=O)N[C@H](CN1CC[C@H](O)C1)[C@H](O)c1ccc(OC(C)C)cc1` [Compound 456], for which the IC50 was at most 0.1 µM.
Still for that read-out and setting: to `COc1ccc(C(=O)CCCCCC(=O)N[C@H](CN2CCC(C)(C)C2)[C@H](O)c2ccc3c(c2)OCCO3)cc1` [Compound 520] belongs 1 to 3 µM; to `COc1ccc(C(=O)CCCC(=O)N[C@H](CN2CC[C@@H](F)C2)[C@H](O)c2ccc(OCCCCF)cc2)cc1` [Compound 736], at most 0.1 µM.
The same measure, in the same setting: the figure for `CCCCCCC1=CC([C@H](CN2CCCC2)[C@H](O)c2ccc3c(c2)OCCO3)NN1` (stereo partly shown) [Compound 591] is 3 to 10 µM; for `CCCCCCCCCCCCCCCC(=O)N[C@H](CNCc1ccccc1)[C@H](O)c1ccc2c(c1)OCCO2` [Compound 678] it is 3 to 10 µM; for `O=C(CCCCC(=O)c1ccc(F)cc1)N[C@H](CN1CCCC1)[C@H](O)c1ccc2c(c1)OCCO2` [Compound 640] it is 0.1 to 1 µM.
Still for that read-out and setting: to `COc1ccc(C(=O)CCCCC(=O)N[C@H](CN2CCCC2)[C@H](O)c2ccc(OCCCOc3ccccc3)cc2)cc1` [Compound 433] belongs at most 0.1 µM; to `COc1ccc(C(=O)CCCCCC(=O)N[C@H](CN2CC[C@H](O)C2)[C@H](O)c2ccc3c(c2)OCCO3)cc1` [Compound 532], at most 0.1 µM.
With `O=C(CCCCCS(=O)(=O)C1CCCCC1)N[C@H](CN1CC[C@@H](F)C1)[C@H](O)c1ccc(OCc2ccccc2)cc1` [Compound 578], the IC50 is at most 0.1 µM.
On the same count and under the same terms, the figure for `O=C(NCc1ccc(Cl)cc1)N[C@H](CN1CC[C@H](O)C1)[C@H](O)c1ccc(OCCCCF)cc1` [Compound 503] is at most 0.1 µM; for `CCCCCCCCCCCCCCCC(=O)N[C@H](CNCc1ccco1)[C@H](O)c1ccc2c(c1)OCCO2` [Compound 679] it is 3 to 10 µM; for `COc1ccc(OCCC(=O)N[C@H](CN2CCCC2)[C@H](O)c2ccc(OCCOc3cccc(C)c3)cc2)cc1` [Compound 722] it is at most 0.1 µM.
On the same count and under the same terms, to `CCCCCCOc1ccc([C@@H](O)[C@@H](CN2CC[C@H](O)C2)NC(=O)CCOc2ccc(Cl)cc2)cc1` [Compound 729] belongs at most 0.1 µM.
For `O=C(CCCC(=O)c1ccc(F)cc1)N[C@H](CN1C2CCC1CC2)[C@H](O)c1ccc2c(c1)OCCO2` [Compound 474], the IC50 was in the range of 0.1 to 1 µM.
On the same count and under the same terms, the figure for `O=C(CCCN1Cc2ccccc2C1=O)N[C@H](CN1CCCC1)[C@H](O)c1ccc2c(c1)OCCO2` [Compound 485] is 3 to 10 µM.
